Assay results published in US20230165831A1, “METHOD AND COMPOSITION FOR RENDERING CANCER CELLS SUSCEPTIBLE TO TREATMENT BY TARGETED ONCOGENETIC DRIVERS” (IMPACT BIOLIFE SCIENCE, INC., priority 2021, published 2023).
Where two headings read alike, the source gives them in different places.

Tests used:
[1] = tested on: pancreatic cancer line Capan-1 cells; assay: CTG (CellTiter-Glo) cell viability assay, 6×6 combo matrix, 72 h, Capan-1; type: cell-based; conditions: for Relatively Cell inhibition of vehicle control(%): Capan-1
Outline: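 Capan-1 cells were seeded at 3000 cells per well and incubated overnight at 37 °C/5% CO2. They were then treated with compounds in a 6×6 combination matrix for 72 h at 37 °C/5% CO2. Viability was read by CellTiter-Glo luminescence to assess inhibition and synergy.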

[2] = tested on: breast cancer line T47D cells;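 note: luminescence read-out after 72 h at 37 °C under 5% CO2, with medium-only wells as blanks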
Method: (§1) To measure the cell inhibition effect of compounds and synergy effect of test articles on ten (10) cell lines using standard CTG assay.
(§2) 7) Using complete cell medium, adjust the volume of the suspension to achieve a cell concentration.
(§3) b. A549, T47D, SK-OV-3, MKN45, SK-Hep-1, HT-29, Capan-1, 786-O and LNCaP cell line, for compounds and vehicle groups, the seeding density of cell lines is 3000 cells/80 µL per well. For blank groups, add 100 µL medium. For PBS groups, add 100 µL PBS.
(§4) 8) Incubate the U87MG, A549, T47D, SK-OV-3, MKN45, SK-Hep-1, HT-29, Capan-1, 786-O and LNCaP cells overnight at 37° C./5% CO2.
(§5) Solid compound of cis-platinum was solubilized in PBS to a stock solution of 3.333 mM.
(§6) Final volume is 100 µL per well at this point.
(§7) 5) Incubate the plates at 37° C./5% CO2 for 72 hours.
(§8) 1) Incubate the plates at room temperature and away from light for 30 minutes.
(§9) 3) Add 100 µL /well of CellTiter-Glo® Reagent in each well. Avoid light.
(§10) 4) Mix contents for 2 minutes on an orbital shaker.
(§11) 5) Incubate plate at room temperature for 10 minutes to stabilize the luminescent signal.
6) Read plates in Envision.

[3] = tested on: prostate adenocarcinoma line LNCap cells;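 note: luminescence signal read after adding CellTiter-Glo reagent, with cells exposed to compounds for 72 h at 37 °C under 5% CO2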
[4] = tested on: kidney cancer line 786-O cells;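 note: luminescence read-out after adding CellTiter-Glo reagent, with cells incubated at 37 °C under 5% CO2 during compound exposure, part of a ten cell line synergy study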
Method: as §1, §2, §3, §4, §5, §6, §7, §8, §9, §10, §11
6) Read plates in Envision.

[5] = tested on: ovarian cancer line SK-OV3 cells;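 note: luminescent signal read after CellTiter-Glo addition, cells exposed to compounds for 72 h at 37 °C under 5% CO2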
Method: as §1, §2
(§12) A549, T47D, SK-OV-3, MKN45, SK-Hep-1, HT-29, Capan-1, 786-O and LNCaP cell line, for compounds and vehicle groups, the seeding density of cell lines is 3000 cells/80 µL per well. For blank groups, add 100 µL medium. For PBS groups, add 100 µL PBS.
as §4, §5, §6, §7, §8, §9, §10, §11
6) Read plates in Envision.

[6] = tested on: breast cancer line T47D cells; assay: CTG (CellTiter-Glo) cell viability assay, 6×6 combo matrix, 72 h, T47D; conditions: Homo sapiens;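 note: luminescence read-out after 72 h at 37 °C under 5% CO2, with medium-only wells as blanks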
Method: as §1, §2, §3, §4, §5, §6, §7, §8, §9, §10, §11
6) Read plates in Envision.

[7] = tested on: lung adenocarcinoma line A549 cells; assay: CTG (CellTiter-Glo) cell viability assay, 6×6 combo matrix, 72 h, A549; conditions: for Relatively Cell inhibition of vehicle control(%): A549;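 for all read-outs here: luminescent ATP readout with CellTiter-Glo after compound exposure, used to assess growth inhibition and combination synergy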
[8] = tested on: glioblastoma line U87MG cells; assay: CTG (CellTiter-Glo) cell viability assay, 6×6 combo matrix, 72 h, U87MG; conditions: Homo sapiens, U-87 MG;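 note: U87MG cells seeded at 2000 per well, exposed 72 h, viability read by CellTiter-Glo luminescence, inhibition expressed relative to vehicle-treated wells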
[9] = tested on: prostate adenocarcinoma line LNCap cells; assay: CTG (CellTiter-Glo) cell viability assay, 6×6 combo matrix, 72 h, LNCaP; conditions: Homo sapiens, LNCaP;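 note: luminescence signal read after adding CellTiter-Glo reagent, with cells exposed to compounds for 72 h at 37 °C under 5% CO2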
[10] = tested on: gastric cancer line MKN45 cells; assay: CTG (CellTiter-Glo) cell viability assay, 6×6 combo matrix, 72 h, MKN45;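 note: MKN45 cell viability read as CellTiter-Glo luminescence after 72 h culture at 37 °C under 5% CO2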
[11] = tested on: kidney cancer line 786-O cells; assay: CTG (CellTiter-Glo) cell viability assay, 6×6 combo matrix, 72 h, 786-O; conditions: for Relatively Cell inhibition of vehicle control(%): 786-O;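 for all read-outs here: luminescence read-out after adding CellTiter-Glo reagent, with cells incubated at 37 °C under 5% CO2 during compound exposure, part of a ten cell line synergy study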
Method: as §1, §2, §3, §4, §5, §6, §7, §8, §9, §10, §11
6) Read plates in Envision.

[12] = tested on: ovarian cancer line SK-OV3 cells; assay: CTG (CellTiter-Glo) cell viability assay, 6×6 combo matrix, 72 h, SK-OV-3; conditions: for Relatively Cell inhibition of vehicle control(%): SK-OV-3;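 for all read-outs here: luminescent signal read after CellTiter-Glo addition, cells exposed to compounds for 72 h at 37 °C under 5% CO2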
Method: as §1, §2, §12, §4, §5, §6, §7, §8, §9, §10, §11
6) Read plates in Envision.

[13] = tested on: Liver cancer line SK-HEP-1 cells; assay: CTG (CellTiter-Glo) cell viability assay, 6×6 combo matrix, 72 h, SK-Hep-1; conditions: Homo sapiens;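 note: luminescent signal read after 72 h compound exposure at 37 °C under 5% CO2, with medium-only wells serving as blank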
[14] = Homo sapiens, A549, read-out: Relatively Cell inhibition of vehicle control(%)
[15] = read-out: Relatively Cell inhibition of vehicle control(%), topotecan 16 nM only (myricetin plate)
[16] = read-out: Relatively Cell inhibition of vehicle control(%), topotecan 80 nM only (myricetin plate)
[17] = read-out: Relatively Cell inhibition of vehicle control(%), topotecan 400 nM only (myricetin plate)
[18] = read-out: Relatively Cell inhibition of vehicle control(%), topotecan 2000 nM only (myricetin plate)
[19] = read-out: Relatively Cell inhibition of vehicle control(%), topotecan 10000 nM only (myricetin plate)
[20] = Homo sapiens, 786-0, read-out: Relatively Cell inhibition of vehicle control

In the case of CC[C@@]1(O)C(=O)OCc2c1cc1n(c2=O)Cc2cc3c(CN(C)C)c(O)ccc3nc2-1 [topotecan], the inhibition at […] ([1]; Homo sapiens, CAPAN-1, topotecan 16 nM only, read-out: Relatively Cell inhibition of vehicle control) is reported as 21%, the inhibition at 0.08 µM ([1]; Homo sapiens, CAPAN-1, topotecan 80 nM only, read-out: Relatively Cell inhibition of vehicle control) is reported as 53.9% and the inhibition at 0.4 µM ([1]; Homo sapiens, CAPAN-1, topotecan 400 nM only, read-out: Relatively Cell inhibition of vehicle control) is reported as 74.3%. For the same molecule, the inhibition at 2 µM ([1]; Homo sapiens, CAPAN-1, topotecan 2000 nM only, read-out: Relatively Cell inhibition of vehicle control) was 88.4%, the inhibition at 10 µM ([1]; Homo sapiens, CAPAN-1, topotecan 10000 nM only, read-out: Relatively Cell inhibition of vehicle control) was 78.1% and the “Relatively Cell inhibition of vehicle control(%)” value ([1]; Top 16 nM only) was 13.17%. For the same molecule, the “Relatively Cell inhibition of vehicle control(%)” value ([1]; Top 80 nM only) was 54.35%, the “Relatively Cell inhibition of vehicle control(%)” value ([1]; Top 400 nM only) was 74.56% and the “Relatively Cell inhibition of vehicle control(%)” value ([1]; Top 2000 nM only) was 88.92%. For the same molecule, the “Relatively Cell inhibition of vehicle control(%)” value ([1]; Top 10000 nM only) was 81.26%, the inhibition [2] was 2.49% and the inhibition [3] was 15.4%. For the same molecule, the inhibition [4] was 2.61%, the inhibition [5] was 23% and the inhibition at […] ([6]; read-out: Relatively Cell inhibition of vehicle control(%), T47D, 16 nM topotecan only (myricetin 0)) was 12.5%. The inhibition at 0.08 µM ([6]; read-out: Relatively Cell inhibition of vehicle control(%), T47D, 80 nM topotecan only (LB-1 0)) was 29.6%, the inhibition at 0.08 µM ([6]; read-out: Relatively Cell inhibition of vehicle control(%), T47D, 80 nM topotecan only (myricetin 0)) was 36.9% and the inhibition at 0.4 µM ([6]; read-out: Relatively Cell inhibition of vehicle control(%), T47D, 400 nM topotecan only (LB-1 0)) was 45.7%. The inhibition at 0.4 µM ([6]; read-out: Relatively Cell inhibition of vehicle control(%), T47D, 400 nM topotecan only (myricetin 0)) was 53.9%, the inhibition at 2 µM ([6]; read-out: Relatively Cell inhibition of vehicle control(%), T47D, 2000 nM topotecan only (LB-1 0)) was 58.3% and the inhibition at 2 µM ([6]; read-out: Relatively Cell inhibition of vehicle control(%), T47D, 2000 nM topotecan only (myricetin 0)) was 62.7%. The inhibition at 10 µM ([6]; read-out: Relatively Cell inhibition of vehicle control(%), T47D, 10000 nM topotecan only (LB-1 0)) was 57.7%, the inhibition at 10 µM ([6]; read-out: Relatively Cell inhibition of vehicle control(%), T47D, 10000 nM topotecan only (myricetin 0)) was 61.9% and the inhibition at 0.08 µM [7, 14] was 34.9%. For the same molecule, the inhibition at 0.4 µM [7, 14] was 60%, the inhibition at 2 µM [7, 14] was 79.7% and the inhibition at 10 µM [7, 14] was 94.4%. The “Relatively Cell inhibition of vehicle control(%)” value ([7]; Top 16 nM only) was -0.68%, the “Relatively Cell inhibition of vehicle control(%)” value ([7]; Top 80 nM only) was 37.94% and the “Relatively Cell inhibition of vehicle control(%)” value ([7]; Top 400 nM only) was 62.21%. For the same molecule, the “Relatively Cell inhibition of vehicle control(%)” value ([7]; Top 2000 nM only) was 80.57%, the “Relatively Cell inhibition of vehicle control(%)” value ([7]; Top 10000 nM only) was 93.99% and the inhibition at […] ([8]; read-out: Relatively Cell inhibition of vehicle control(%), topotecan 16 nM only) was 15.6%. The inhibition at […] [8, 15] was 11.4%, the inhibition at 0.08 µM ([8]; read-out: Relatively Cell inhibition of vehicle control(%), topotecan 80 nM only) was 49.3% and the inhibition at 0.08 µM [8, 16] was 51.6%. For the same molecule, the inhibition at 0.4 µM ([8]; read-out: Relatively Cell inhibition of vehicle control(%), topotecan 400 nM only) was 64.1%, the inhibition at 0.4 µM [8, 17] was 66.2% and the inhibition at 2 µM ([8]; read-out: Relatively Cell inhibition of vehicle control(%), topotecan 2000 nM only) was 73.5%. It also gave an inhibition at 2 µM [8, 18] of 76.3%, an inhibition at 10 µM ([8]; read-out: Relatively Cell inhibition of vehicle control(%), topotecan 10000 nM only) of 82.1% and an inhibition at 10 µM [8, 19] of 83.4%. For the same molecule, the inhibition at […] [9, 15] was 17.6%, the inhibition at 0.08 µM ([9]; read-out: Relatively Cell inhibition of vehicle control(%), topotecan 80 nM only (LB-1 plate)) was 37.8% and the inhibition at 0.08 µM [9, 16] was 40.1%. The inhibition at 0.4 µM ([9]; read-out: Relatively Cell inhibition of vehicle control(%), topotecan 400 nM only (LB-1 plate)) was 55.9%, the inhibition at 0.4 µM [9, 17] was 60% and the inhibition at 2 µM ([9]; read-out: Relatively Cell inhibition of vehicle control(%), topotecan 2000 nM only (LB-1 plate)) was 82.1%. The inhibition at 2 µM [9, 18] was 83.6%, the inhibition at 10 µM ([9]; read-out: Relatively Cell inhibition of vehicle control(%), topotecan 10000 nM only (LB-1 plate)) was 84.8% and the inhibition at 10 µM [9, 19] was 87.5%. The “Relatively Cell inhibition of vehicle control(%)” value ([10]; Top 16 nM only (Myr 0)) was 27.49%, the “Relatively Cell inhibition of vehicle control(%)” value ([10]; Top 80 nM only (LB-1 0)) was 48.98% and the “Relatively Cell inhibition of vehicle control(%)” value ([10]; Top 80 nM only (Myr 0)) was 53.47%. For the same molecule, the “Relatively Cell inhibition of vehicle control(%)” value ([10]; Top 400 nM only (LB-1 0)) was 84.58%, the “Relatively Cell inhibition of vehicle control(%)” value ([10]; Top 400 nM only (Myr 0)) was 85.99% and the “Relatively Cell inhibition of vehicle control(%)” value ([10]; Top 2000 nM only (LB-1 0)) was 91.55%. The “Relatively Cell inhibition of vehicle control(%)” value ([10]; Top 2000 nM only (Myr 0)) was 92.29%, the “Relatively Cell inhibition of vehicle control(%)” value ([10]; Top 10000 nM only (LB-1 0)) was 89.36% and the “Relatively Cell inhibition of vehicle control(%)” value ([10]; Top 10000 nM only (Myr 0)) was 91.07%. It also gave an inhibition at 0.08 µM [11, 20] of 68.1%, an inhibition at 0.4 µM [11, 20] of 82.5% and an inhibition at 2 µM [11, 20] of 91.7%. The inhibition at 10 µM [11, 20] was 93.9%, the “Relatively Cell inhibition of vehicle control(%)” value ([11]; Top 80 nM only (LB-1 0)) was 68.14% and the “Relatively Cell inhibition of vehicle control(%)” value ([11]; Top 400 nM only (LB-1 0)) was 83.15%. The “Relatively Cell inhibition of vehicle control(%)” value ([11]; Top 2000 nM only (LB-1 0)) was 91.65%, the “Relatively Cell inhibition of vehicle control(%)” value ([11]; Top 10000 nM only (LB-1 0)) was 93.59% and the inhibition at 1 µM ([12]; Homo sapiens, SK-OV-3, read-out: inhibition rate) was 93.9%. The “Relatively Cell inhibition of vehicle control(%)” value ([12]; Top 16 nM only (myricetin matrix)) was 21.67%, the “Relatively Cell inhibition of vehicle control(%)” value ([12]; Top 80 nM only (LB-1 matrix)) was 68.74% and the “Relatively Cell inhibition of vehicle control(%)” value ([12]; Top 80 nM only (myricetin matrix)) was 67.77%. For the same molecule, the “Relatively Cell inhibition of vehicle control(%)” value ([12]; Top 400 nM only (LB-1 matrix)) was 83.70%, the “Relatively Cell inhibition of vehicle control(%)” value ([12]; Top 400 nM only (myricetin matrix)) was 82.50% and the “Relatively Cell inhibition of vehicle control(%)” value ([12]; Top 2000 nM only (LB-1 matrix)) was 90.55%. The “Relatively Cell inhibition of vehicle control(%)” value ([12]; Top 2000 nM only (myricetin matrix)) was 90.97%, the “Relatively Cell inhibition of vehicle control(%)” value ([12]; Top 10000 nM only (myricetin matrix)) was 94.18% and the inhibition at […] ([13]; SK-HEP1, read-out: Relatively Cell inhibition of vehicle control, topotecan 16 nM only (myricetin table)) was -4.24%. For the same molecule, the inhibition at 0.08 µM ([13]; SK-HEP1, read-out: Relatively Cell inhibition of vehicle control, topotecan 80 nM only (LB-1 table)) was 9.52%, the inhibition at 0.08 µM ([13]; SK-HEP1, read-out: Relatively Cell inhibition of vehicle control, topotecan 80 nM only (myricetin table)) was 16% and the inhibition at 0.4 µM ([13]; SK-HEP1, read-out: Relatively Cell inhibition of vehicle control, topotecan 400 nM only (LB-1 table)) was 35.4%. For the same molecule, the inhibition at 0.4 µM ([13]; SK-HEP1, read-out: Relatively Cell inhibition of vehicle control, topotecan 400 nM only (myricetin table)) was 37.7%, the inhibition at 2 µM ([13]; SK-HEP1, read-out: Relatively Cell inhibition of vehicle control, topotecan 2000 nM only (LB-1 table)) was 70.3% and the inhibition at 2 µM ([13]; SK-HEP1, read-out: Relatively Cell inhibition of vehicle control, topotecan 2000 nM only (myricetin table)) was 74.2%. For the same molecule, the inhibition at 10 µM ([13]; SK-HEP1, read-out: Relatively Cell inhibition of vehicle control, topotecan 10000 nM only (LB-1 table)) was 98.6%, the inhibition at 10 µM ([13]; SK-HEP1, read-out: Relatively Cell inhibition of vehicle control, topotecan 10000 nM only (myricetin table)) was 99.1% and the inhibition at 1 µM ([13]; SK-HEP1, read-out: inhibition rate, 1000 nM topotecan only (footnote of the LB-1 table)) was 98.6%.
